Literature values in patent EP2545940A9, “Parenteral compositions” (hameln rds gmbh, priority 2011, dated 2013).
Like-named read-outs stand apart in the source and are kept apart here.

Details: 25°C

## C[C@H](/C=C/[C@H](C)C(C)(C)O)[C@H]1CC[C@H]2/C(=C/C=C3C[C@@H](O)C[C@H](O)C3)CCC[C@]12C [Paracalcin, (1 R, 3R, 7E, 17β) -17 - [(1 R, 2E, 4S)-5-Hydroxy-1 ,4,5-trimethylhex-2-en-1-yl] -9,10-secoestra-5,7-Dien-1 ,3-diol]
cosolvent: Ethanol 0.00, Propylene glycol 0.302, Water 0.698
  Paracalcin: 0.58 µg/mL
cosolvent: Ethanol 0.00, Propylene glycol 0.506, Water 0.494
  Paracalcin: 14.21 µg/mL
cosolvent: Ethanol 0.100, Propylene glycol 0.257, Water 0.643
  Paracalcin: 2.88 µg/mL
cosolvent: Ethanol 0.199, Propylene glycol 0.207, Water 0.594
  Paracalcin: 15.94 µg/mL
cosolvent: Ethanol 0.201, Propylene glycol 0.308, Water 0.491
  Paracalcin: 72.90 µg/mL
cosolvent: Ethanol 0.299, Propylene glycol 0.00, Water 0.701
  Paracalcin: 6.82 µg/mL
cosolvent: Ethanol 0.347, Propylene glycol 0.102, Water 0.551
  Paracalcin: 119.37 µg/mL
cosolvent: Ethanol 0.498, Propylene glycol 0.00, Water 0.502
  Paracalcin: 601.63 µg/mL
